Assay results: ChEMBL document CHEMBL3046266, “Synthesis of curcumin and ethylcurcumin bioconjugates as potential antitumor agents” (Med Chem Res, 2012)
The source made the active and inactive calls. The calls are words filed in the database; no cut-off is given here.

Key:
KB [1] = experiment: Cytotoxicity against Homo sapiens (human) KB cells up to 25 uM by neutral red staining; type: functional, cell-based
Vero = experiment: Cytotoxicity against Chlorocebus aethiops (African green monkey) Vero cells up to 25 uM by neutral red staining; type: cell-based; conditions: chlorocebus sabaeus
SK-MEL [2] = experiment: Cytotoxicity against Homo sapiens (human) SK-MEL cells up to 25 uM by neutral red staining; type: functional, cell-based
[3] = biological target: DNA topoisomerase 2-alpha (Homo sapiens, UniProt P11388); experiment: Inhibition of Homo sapiens (human) topoisomerase 2 assessed as decatenation of KDNA by agarose gel electrophoresis
DNA topoisomerase 2-alpha, sequence (P11388 whole entry): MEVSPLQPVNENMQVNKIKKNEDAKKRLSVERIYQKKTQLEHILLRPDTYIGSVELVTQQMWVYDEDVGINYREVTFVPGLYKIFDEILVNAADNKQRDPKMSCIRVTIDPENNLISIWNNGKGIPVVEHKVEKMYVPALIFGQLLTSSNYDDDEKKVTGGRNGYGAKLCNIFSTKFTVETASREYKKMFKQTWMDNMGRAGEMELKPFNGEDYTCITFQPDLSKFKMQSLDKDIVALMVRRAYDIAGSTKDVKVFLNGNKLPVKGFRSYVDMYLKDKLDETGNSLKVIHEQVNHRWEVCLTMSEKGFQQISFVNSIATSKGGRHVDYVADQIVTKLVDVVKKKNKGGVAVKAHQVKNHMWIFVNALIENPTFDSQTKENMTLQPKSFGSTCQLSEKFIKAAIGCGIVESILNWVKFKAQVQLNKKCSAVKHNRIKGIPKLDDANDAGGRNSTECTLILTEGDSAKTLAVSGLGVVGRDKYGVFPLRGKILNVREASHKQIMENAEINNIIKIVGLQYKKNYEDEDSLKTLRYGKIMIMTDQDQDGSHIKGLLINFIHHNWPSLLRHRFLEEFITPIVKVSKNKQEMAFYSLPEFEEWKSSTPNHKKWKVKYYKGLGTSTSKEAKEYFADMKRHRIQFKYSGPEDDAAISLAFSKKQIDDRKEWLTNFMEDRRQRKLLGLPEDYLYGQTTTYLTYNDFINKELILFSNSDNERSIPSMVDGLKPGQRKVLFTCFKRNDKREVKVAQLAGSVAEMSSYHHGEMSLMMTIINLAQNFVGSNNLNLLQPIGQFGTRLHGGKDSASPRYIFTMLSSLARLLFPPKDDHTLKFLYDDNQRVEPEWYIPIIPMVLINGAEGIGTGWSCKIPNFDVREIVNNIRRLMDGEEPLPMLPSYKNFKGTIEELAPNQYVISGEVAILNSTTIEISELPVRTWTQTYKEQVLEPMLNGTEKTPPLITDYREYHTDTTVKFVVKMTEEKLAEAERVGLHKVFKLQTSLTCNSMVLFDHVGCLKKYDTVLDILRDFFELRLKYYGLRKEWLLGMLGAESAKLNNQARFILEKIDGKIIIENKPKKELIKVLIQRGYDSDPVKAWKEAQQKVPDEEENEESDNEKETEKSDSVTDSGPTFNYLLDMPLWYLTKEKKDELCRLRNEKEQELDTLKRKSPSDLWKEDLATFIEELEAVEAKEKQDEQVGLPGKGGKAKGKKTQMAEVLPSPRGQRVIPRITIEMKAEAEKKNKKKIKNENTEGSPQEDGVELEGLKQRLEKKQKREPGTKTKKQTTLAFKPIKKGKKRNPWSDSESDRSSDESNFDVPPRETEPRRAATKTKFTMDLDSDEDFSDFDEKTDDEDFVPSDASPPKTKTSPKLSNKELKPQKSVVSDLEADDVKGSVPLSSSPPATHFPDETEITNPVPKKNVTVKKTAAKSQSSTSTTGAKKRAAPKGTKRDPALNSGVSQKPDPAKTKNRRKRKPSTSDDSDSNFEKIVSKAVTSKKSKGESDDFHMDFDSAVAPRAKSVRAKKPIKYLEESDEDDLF

SK-OV-3 = experiment: Cytotoxicity against Homo sapiens (human) SKOV3 cells up to 25 uM by neutral red staining; type: functional, cell-based
[4] = biological target: T1, DNA topoisomerase 1 (Homo sapiens) (UniProt P11387); experiment: Inhibition of Homo sapiens (human) topoisomerase 1 assessed as relaxation of supercoiled DNA up to 25 uM by agarose gel electrophoresis
T1 sequence (whole entry): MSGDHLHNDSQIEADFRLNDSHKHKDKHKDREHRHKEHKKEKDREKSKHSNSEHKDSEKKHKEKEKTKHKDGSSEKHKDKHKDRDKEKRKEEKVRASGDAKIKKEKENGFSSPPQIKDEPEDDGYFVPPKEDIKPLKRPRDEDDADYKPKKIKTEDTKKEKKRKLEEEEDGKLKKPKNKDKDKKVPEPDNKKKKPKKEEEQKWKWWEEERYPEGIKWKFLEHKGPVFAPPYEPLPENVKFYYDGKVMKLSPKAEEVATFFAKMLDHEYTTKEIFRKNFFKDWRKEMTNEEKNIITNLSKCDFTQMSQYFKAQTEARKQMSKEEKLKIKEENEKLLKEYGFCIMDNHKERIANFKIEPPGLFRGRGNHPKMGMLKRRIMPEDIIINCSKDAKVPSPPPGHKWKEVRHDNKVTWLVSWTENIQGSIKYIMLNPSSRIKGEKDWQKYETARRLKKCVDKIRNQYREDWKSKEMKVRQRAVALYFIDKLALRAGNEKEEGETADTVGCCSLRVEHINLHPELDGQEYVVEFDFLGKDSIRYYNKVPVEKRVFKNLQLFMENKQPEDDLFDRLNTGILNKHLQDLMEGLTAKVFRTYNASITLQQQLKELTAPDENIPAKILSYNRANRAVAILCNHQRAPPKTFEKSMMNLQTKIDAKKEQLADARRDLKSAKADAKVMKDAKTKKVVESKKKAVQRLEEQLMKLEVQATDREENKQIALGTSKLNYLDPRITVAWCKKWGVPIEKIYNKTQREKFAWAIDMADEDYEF

[5] = biological target: T1, DNA topoisomerase 1 (Homo sapiens); experiment: Inhibition of Homo sapiens (human) topoisomerase 1 assessed as production of nicked DNA up to 25 uM by agarose gel electrophoresis
LLC-PK1 [6] = experiment: Cytotoxicity against Sus scrofa (pig) LLC-PK1 cells up to 25 uM by neutral red staining; type: cell-based
BT-549 [7] = experiment: Cytotoxicity against Homo sapiens (human) BT549 cells up to 25 uM by neutral red staining; type: functional, cell-based
KB [8] = experiment: Cytotoxicity against Homo sapiens (human) KB cells by neutral red staining; type: functional, cell-based
SK-MEL [9] = experiment: Cytotoxicity against Homo sapiens (human) SK-MEL cells by neutral red staining; type: functional, cell-based
BT-549 [10] = experiment: Cytotoxicity against Homo sapiens (human) BT549 cells by neutral red staining; type: functional, cell-based
LLC-PK1 [11] = experiment: Cytotoxicity against Sus scrofa (pig) LLC-PK1 cells by neutral red staining; type: cell-based

| Compound | Activity (KB [1]) | Activity (Vero) | Activity (SK-MEL [2]) | IC50 [3] [µM] | Activity (SK-OV-3) | inhibition [4] | inhibition [5] | Activity (LLC-PK1 [6]) | Activity (BT-549 [7]) | IC50 (KB [8]) [µM] | IC50 (SK-MEL [9]) [µM] | IC50 (BT-549 [10]) [µM] | IC50 (LLC-PK1 [11]) [µM] |
| --- | --- | --- | --- | --- | --- | --- | --- | --- | --- | --- | --- | --- | --- |
| COc1cc(/C=C/C(=O)CC(=O)/C=C/c2ccc(OC(=O)C34CC5CC(CC(C5)C3)C4)c(OC)c2)ccc1OC(=O)C12CC3CC(CC(C3)C1)C2 [DI-O-ADAMANTOYLCURCUMIN] | inactive | Non-toxic | inactive | 4.5 | inactive | inactive | inactive | Non-toxic | inactive | – | – | – | – |
| CCOc1cc(/C=C/C(=O)CC(=O)/C=C/c2ccc(OC(=O)CCNC34CC5CC(CC(C5)C3)C4)c(OCC)c2)ccc1OC(=O)CCNC12CC3CC(CC(C3)C1)C2 | – | Non-toxic | inactive | 2.1 | inactive | inactive | inactive | Non-toxic | inactive | 15 | – | – | – |
| CCOc1cc(/C=C/C(=O)CC(=O)/C=C/c2ccc(OC(=O)CNC34CC5CC(CC(C5)C3)C4)c(OCC)c2)ccc1OC(=O)CNC12CC3CC(CC(C3)C1)C2 | inactive | Non-toxic | inactive | 3.4 | inactive | inactive | inactive | Non-toxic | inactive | – | – | – | – |
| CCCCCCC(=O)Oc1ccc(/C=C/C(=O)CC(=O)/C=C/c2ccc(OC(=O)CCCCCC)c(OCC)c2)cc1OCC [DI-O-HEPTANOYLETHYLCURCUMIN] | inactive | Non-toxic | inactive | 3 | inactive | inactive | inactive | Non-toxic | inactive | – | – | – | – |
| COc1cc(/C=C/C(=O)CC(=O)/C=C/c2ccc(OC(=O)CCNC34CC5CC(CC(C5)C3)C4)c(OC)c2)ccc1OC(=O)CCNC12CC3CC(CC(C3)C1)C2 | – | Non-toxic | – | 18 | inactive | inactive | inactive | Non-toxic | – | > 25 | 18.5 | 20.5 | – |
| COc1cc(/C=C/C(=O)CC(=O)/C=C/c2ccc(OC(=O)CNCCCl)c(OC)c2)ccc1OC(=O)CNCCCl | inactive | Non-toxic | inactive | 0.35 | inactive | inactive | inactive | Non-toxic | inactive | – | – | – | – |
| CCOc1cc(/C=C/C(=O)CC(=O)/C=C/c2ccc(OC(=O)c3cccs3)c(OCC)c2)ccc1OC(=O)c1cccs1 [DI-O-(2-THIENOYL)ETHYLCURCUMIN] | inactive | Non-toxic | inactive | 23 | inactive | inactive | inactive | Non-toxic | inactive | – | – | – | – |
| COc1cc(/C=C/C(=O)CC(=O)/C=C/c2ccc(OC(=O)CCl)c(OC)c2)ccc1OC(=O)CCl [DI-O-CHLOROACETYLCURCUMIN] | – | Non-toxic | – | 20 | inactive | inactive | inactive | Non-toxic | – | > 25 | 12.5 | 10 | – |
| CCOc1cc(/C=C/C(=O)CC(=O)/C=C/c2ccc(O)c(OCC)c2)ccc1O [ETHYL CURCUMIN] | – | Non-toxic | – | 7.5 | inactive | inactive | inactive | Non-toxic | – | > 25 | 16 | 18 | – |
| CCOc1cc(/C=C/C(=O)CC(=O)/C=C/c2ccc(OC(=O)CNCCN(C)C)c(OCC)c2)ccc1OC(=O)CNCCN(C)C | inactive | Non-toxic | inactive | 4 | inactive | inactive | inactive | – | – | – | – | 11.5 | 22 |
